“Also recorded” adds a separate entry of the source.
What was measured:
HCT116 cells = assay: DHODH rescue assay / cell growth (cell confluence, IncuCyte); assay type: cell-based; settings: for rescue of cell growth by uridine: 100 μM uridine, 96 h; for influence on cell growth (cell confluence): monitored over 96 h; for rescue of cell growth by orotate (OA): 1.5 mM OA
Experimental: Figure 3 Influence of compounds on cell growth and DHODH activity. (A–C) HCT116 cells were treated with the compounds or DMSO as a control in presence or absence of 100 μM uridine. Cell confluence as a measure of cell growth was monitored over 96 h using IncuCyte ZOOM/S3. (A) Brequinar (BRQ). (B) Myxothiazol (MXT). […] (D–E) In vitro DHODH activity. […] (F) Influence of compound 7 on complex III activity. All data are mean values of three biological replicates (n=3)±SD.
(§1) DHODH rescue assay: 2,000 HCT116 or U2OS cells per well were seeded in a clear 96‐well plate and incubated as described above overnight prior to treatment. The next day, the medium was replaced by fresh compound or DMSO containing medium supplemented with control solvent or uridine (100 μM), OA (1.5 mM) or DHO (1.5 mM). Cell growth was monitored every 2 h for a total of 96 h after treatment start using an IncuCyte S3 (Essen BioScience). The cell confluence was quantified as a measure of cell growth using the IncuCyte S3 software (Essen BioScience).

U2OS cells [1] = assay: Cell Painting assay (CPA), morphological fingerprints; assay type: cell-based, human; settings: for biosimilarity (BioSim) to brequinar / biosimilarity (BioSim) to IPP/CNRS-A017: concentration not given, similar if biosimilarity >75 %; for BioSim [%] (biosimilarity) to IPP/CNRS-A017: reference fingerprint IPP/CNRS-A017 5 μM; for BioSim [%] (biosimilarity) to brequinar: reference fingerprint brequinar 10 μM
Experimental: Therefore, the definition of bioactivity clusters is crucial for proper hypothesis generation for uncharacterized small molecules that are subjected to the CPA and requires thorough inspection of the CPA fingerprints of reference compounds.[[2b], [9], [10]] […] For the CPA, human osteosarcoma U2OS cells were treated with compounds for 20 h prior to detection of cellular components and compartments (DNA, RNA, mitochondria, Golgi, endoplasmic reticulum (ER), actin, plasma membrane) using six different dyes. Morphological features are extracted and differences to the control (cells that were treated with DMSO) are expressed as Z scores. The CPA fingerprints used in this study compile Z scores for 579 features. […] Myxothiazol is an inhibitor of complex III of the mitochondrial electron transport chain.[15] Whereas de novo biosynthesis of pyrimidines takes place in the cytosol, DHODH is the only enzyme of the pyrimidine biosynthesis pathway that is localized at the inner mitochondrial membrane.[16] DHODH catalyzes the oxidation of dihydroorotate (DHO) to orotate by transferring electrons from DHO via the cofactor FMN to ubiquinone to yield ubiquinol. Electrons from ubiquinol are transferred further to complex III (cytochrome b,c1 complex), thereby recycling […] that is required for DHODH activity. In this way, pyrimidine biosynthesis is tightly coupled to the activity of complex III, which ensures that pyrimidine nucleotides and, thus, DNA and RNA are synthesized only if cells are supplied with sufficient amount of ATP via the mitochondrial respiratory chain. Alternatively, cells can replenish their pyrimidine pools via the salvage pathway by uptake of circulating pyrimidines.[5] Whereas proliferating cells rely on de novo pyrimidine biosynthesis to meet the high demand for nucleotides, the salvage pathway is used by resting and fully differentiated cells.[5]
The cell painting assay: The Cell Painting assay[25] was performed as described previously.[[9a], [26]] U2OS medium (5 μL) was added to each well of a 384‐well plate (PerkinElmer CellCarrier‐384 Ultra) prior to addition of 1,600 U2OS cells per well and incubation for 4 h at 37 °C. Standard stock concentration of compounds was 10 mM. […] Compounds were added to the cells using the Echo 520 acoustic dispenser (Labcyte) followed by incubation for 20 h at 37 °C. Subsequently, mitochondria were stained with 0.1 μg/μL Mito Tracker Deep Red for 30 min at 37 °C in the dark. Cells were fixed using 3.7 % formaldehyde (in PBS) for 20 min at 37 °C in the dark. Cells were washed three times using PBS before permeabilization using Triton X‐100 for 15 min 37 °C in the dark. After three additional washing steps, 25 μL of a staining solution were added to each well, which contained 1 % BSA, 5 μL/mL Phalloidin (Alexa594 conjugate, Thermo Fisher Scientific, A12381), 25 μg/mL Concanavalin A (Alexa488 conjugate, Thermo Fisher Scientific, Cat. No. C11252), 5 μg/mL Hoechst 33342 (Sigma, Cat. No. B2261‐25 mg), 1.5 μg/mL WGA‐Alexa594 conjugate (Thermo Fisher Scientific, Cat. No. W11262) and 1.5 μM SYTO 14 solution (Thermo Fisher Scientific, Cat. No. S7576). Plates were incubated for 30 min at 37 °C in the dark and washed three times with PBS. Plates were sealed and centrifuged for 1 min at 500 rpm. The plates were prepared in triplicates with shifted layouts to reduce plate effects and imaged using a Micro XL High‐Content Screening System (Molecular Devices) in 5 channels (DAPI: Ex350‐400/Em410‐480; FITC: Ex470‐500/Em510‐540; Spectrum Gold: Ex520‐545/Em560‐585; TxRed: Ex535‐585/Em600‐650; Cy5: Ex605‐650/Em670‐715) with 9 sites per well and 20× magnification (binning 2).
Generated images were processed with the CellProfiler package[27] (https://cellprofiler.org, version 3.0.0) on a computing cluster of the Max Planck Society to extract 1716 cell features. The data was then further aggregated as medians per well (9 sites→1 well), then over the three replicates.

Human DHODH = molecular target: T1, Human DHODH (Homo sapiens, UniProt Q02127); assay: DHODH enzymatic assay (DCPIP reduction); assay type: biochemical; settings: for inhibition at 10 µM: 30 min preincubation, read-out: reduction (inhibition) of in vitro DHODH activity
T1 construct: 40 μL of purified DHODH (aa31–395, final concentration: 1.25 μg/mL); made in house; host or cells: E. coli BL21 (DE3)
Experimental: Expression was induced by adding 0.8 mM IPTG (AppliChem, A1008,0025) and temperature was reduced to 28 °C for 6 hours. […] The clarified supernatant was loaded to the column and washed with PBS (1 mL/min) for 2 h, followed by elution with 10 mM L‐glutathione (Sigma Aldrich, G4251) in PBS. The GST tag was not removed for further analysis. Factions containing hDHODH‐GST protein were pooled, concentrated with centrifugal filters (Ultra‐50 K, Merck Millipore, UFC905096) and shock‐frozen for further analysis. Protein concentration was determined by Bradford measurement.
DHODH enzymatic assay: Enzymatic activity of DHODH was assessed by monitoring the reduction of 2,6‐dichlorophenolinindophenol (DCPIP), which is coupled to the oxidation of dihydroorotate by DHODH. […] The reaction was initiated by adding 50 μL mastermix (2 mM L‐dihydroorotic acid, 0.2 mM decylubiquonone, 0.12 mM 2,6 dichlorphenolindophenol (DCPIP) in assay buffer). DCPIP reduction was monitored at λ=600 nm using Tecan Spark plate reader for 20 min.

U2OS cells [2] = tested on: U2OS cells; parameters: method as in earlier work; settings: ref 9b; cited from earlier work
U2OS cells [3] = settings: 100 μM uridine
Experimental: as §1

[4] = Conc 10 μM, 20 h, percentage of significantly altered features
[5] = complex III inhibitors, Figure S8, concentration not given
[6] = Homo sapiens, U2OS, Conc 10 μM, 20 h, read-out: Cell count [%]
[7] = 96 h, 2, 6, 7 at 10 μM, 4 at 30 μM

T1 sequence (Q02127 31-395): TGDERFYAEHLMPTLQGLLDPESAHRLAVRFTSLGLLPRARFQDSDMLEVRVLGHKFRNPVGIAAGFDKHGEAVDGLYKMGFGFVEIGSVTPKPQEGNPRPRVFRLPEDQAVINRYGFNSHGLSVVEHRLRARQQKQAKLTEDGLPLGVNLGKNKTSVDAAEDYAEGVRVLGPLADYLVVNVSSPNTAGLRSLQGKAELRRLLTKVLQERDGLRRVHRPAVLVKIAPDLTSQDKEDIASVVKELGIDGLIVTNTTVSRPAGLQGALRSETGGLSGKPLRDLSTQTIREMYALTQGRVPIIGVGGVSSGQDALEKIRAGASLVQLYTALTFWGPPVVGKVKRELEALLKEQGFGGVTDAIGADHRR

| SMILES | inhibition at 10 µM (Human DHODH; 10 μM compound) [%] | influence on in vitro DHODH activity, in words (Human DHODH; 10 μM compound) | rescue of cell growth by uridine (HCT116 cells) | influence on cell growth (cell confluence) (HCT116 cells) | biosimilarity (BioSim) to brequinar (U2OS cells [1]) | viability at 10 µM (U2OS cells [1]; [6]) [%] | rescue of cell growth by orotate (OA) (HCT116 cells; [7]) | also measured |
| --- | --- | --- | --- | --- | --- | --- | --- | --- |
| CO/C(=C/C(N)=O)[C@H](C)[C@H](/C=C/c1csc(-c2csc([C@@H](C)/C=C/C=C/C(C)C)n2)n1)OC [Myxothiazol, myxothiazol] | – | – | only partly restored normal cell growth | suppressed the growth | biosimilar | – | – | influence on cell growth (cell confluence) (HCT116 cells; listed as myxothiazol): growth arrest; Cell count [%] (U2OS cells [1]; Conc 10 μM, 20 h): 73%; Ind [%] (induction) (U2OS cells [1]; [4]): 46%; influence on in vitro DHODH activity, in words (Human DHODH; [5]): do not inhibit |
| NC(=O)c1[nH]nc([C@@H]2O[C@H](CO)[C@@H](O)[C@H]2O)c1O [Pyrazofurin, pyrazofurin] | – | – | fully rescued | suppressed the growth | high biosimilarity | 97 | – | biosimilarity (BioSim) to IPP/CNRS-A017 (U2OS cells [1]): high biosimilarity |
| Cc1c(Oc2ccc(F)cc2)c(OC(C)C)nn1-c1ccc(C2CC2)cn1 [Compound 1] | – | – | – | – | not biosimilar | – | – | Ind [%] (induction) (U2OS cells [1]; Conc 5 μM, 20 h): 10%; viability at 5 µM (U2OS cells [1]; Homo sapiens, U2OS, Conc 5 μM, 20 h, read-out: Cell count [%]): 105%; biosimilarity (BioSim) to IPP/CNRS-A017 (U2OS cells [1]): not biosimilar; BioSim [%] (biosimilarity) to brequinar (U2OS cells [1]; compound Conc 5 μM): 39% |
| Cc1c(-c2ccc(-c3ccccc3F)cc2)nc2ccc(F)cc2c1C(=O)O [Brequinar, brequinar] | – | – | completely rescue; also recorded: full cell growth recovery | – | – | 89 | rescued normal cell proliferation | rescue of cell growth by dihydroorotate (DHO) (HCT116 cells; 1.5 mM DHO, 96 h, 2, 6, 7 at 10 μM, 4 at 30 μM): could not restore; Ind [%] (induction) (U2OS cells [1]; [4]): 36%; biosimilarity to the fingerprint of methotrexate (U2OS cells [1]; full fingerprints, Figure S3A and S3B): lack of biosimilarity; BioSim [%] (biosimilarity) to myxothiazol (U2OS cells [1]; reference fingerprint myxothiazol 10 μM, compound Conc 10 μM): 84%; rescue of cell growth by uridine (U2OS cells [3]): completely rescue |
| CCCCCC[C@H]1C(=O)O[C@H](C)[C@H](NC(=O)c2cccc(NC=O)c2O)C(=O)O[C@@H](C)[C@@H]1OC(=O)CC(C)C [antimycin A] | – | – | – | growth arrest | biosimilar | – | – | influence on in vitro DHODH activity, in words (Human DHODH; [5]): do not inhibit |
| CN1C(=O)[C@@]2(C(=O)N(Cc3ccncc3)c3ccc(OC(F)(F)F)cc32)c2ccccc21 [Compound 2] | 27 to 44 | only moderately inhibited | – | – | – | 90 | relieved | – |

Now from value to compound, other results behind:

| inhibition at 10 µM (Human DHODH; 10 μM compound) [%] | influence on in vitro DHODH activity, in words (Human DHODH; 10 μM compound) | SMILES | rescue of cell growth by uridine (HCT116 cells) | influence on cell growth (cell confluence) (HCT116 cells) | biosimilarity (BioSim) to brequinar (U2OS cells [1]) | viability at 10 µM (U2OS cells [1]; [6]) [%] | rescue of cell growth by orotate (OA) (HCT116 cells; [7]) | also measured |
| --- | --- | --- | --- | --- | --- | --- | --- | --- |
| > 50 | – | O=C(Nc1cccnc1)N1Cc2cccc(c2)CN(S(=O)(=O)C(F)(F)F)CC/C=C/C[C@@H]1CO [Compound 5] | – | – | – | 82 | – | CPA fingerprint similarity to the iron chelator deferoxamine (U2OS cells [2]): 80%; cells in S phase (analysis of CPA fingerprints) (U2OS cells [2]): accumulation of cells in S phase; also recorded: increase in the percentage of cells in S phase; BioSim [%] (biosimilarity) to IPP/CNRS-A017 (U2OS cells [1]; compound Conc 10 μM): 87%; BioSim [%] (biosimilarity) to brequinar (U2OS cells [1]; compound Conc 10 μM): 84%; IC50 (Human DHODH; dose-response, n=3 ± SD, read-out: IC50 for inhibition of DHODH): 6.2 ± 3 µM |
| > 50 | – | COc1ccc2[nH]c3c(c2c1)CCO[C@]31CC[C@@]2(Oc3c(Cl)c(OC)cc(OC)c3C2=O)[C@H](C)C1 [Compound 3] | – | – | – | – | – | viability at 3 µM (U2OS cells [1]; Homo sapiens, U2OS, Conc 3 μM, 20 h, read-out: Cell count [%]): 94% |
| 27 to 44 | only moderately inhibited | COc1cc(OC)c2c(c1Cl)O[C@@]1(CC[C@@]3(C[C@H]1C)OCCc1c3[nH]c3ccc(C)cc13)C2=O [Compound 4] | – | – | – | 81 | relieved | – |
| 27 to 44 | only moderately inhibited | Brc1ccc2[nH]c3c(c2c1)CCOC31CCCCC1 [Compound 6] | – | – | – | 88 | relieved | CPA fingerprint similarity to the iron chelator deferoxamine (U2OS cells [2]): 81%; cells in S phase (analysis of CPA fingerprints) (U2OS cells [2]): accumulation of cells in S phase; also recorded: increase in the percentage of cells in S phase; BioSim [%] (biosimilarity) to IPP/CNRS-A017 (U2OS cells [1]; compound Conc 10 μM): 87%; BioSim [%] (biosimilarity) to brequinar (U2OS cells [1]; compound Conc 10 μM): 84% |
